Laboratory results published in patent US20250171460A1, “INDUCERS OF KLF2 AND METHODS OF USE THEREOF” (Riparian Pharmaceuticals, Inc., priority 2022, published 2025).

What follows are compounds tested on primary human endothelial cells expressing luciferase under the control of the KLF2 promoter (assay: KLF2 Induction Cell Based Bioassay (luciferase reporter)). Details: Bioactivity of stereoisomers: S isomer.
Excerpt: In endothelial cell culture media, a stock of the highest working concentration was made at no more than 1% DMSO vehicle. The working stock was then serially diluted 1:2 to make an 11-point concentration response curve. Included in the 96-well plate were 2 reference compounds with known potencies. A DMSO column was included in the 96-well plate at the highest percent vehicle of the working stocks. The 96-well cell culture plate of primary human endothelial cells expressing luciferase under the control of the KLF2 promoter was dosed with 200 μL per well of the dilution series as well as the DMSO control column. The assay plate was incubated at 37° C. for 24 hours. The supernatant was collected at 24 hours.
20 μL of the supernatant was then placed in a 384-well plate with optical duplicates. The corners of the plate received 20 μL of the Gaussia Luciferase Enzyme positive control, as well as 20 μL of the 50 μM Coelenterizine substrate. The plate read is then calibrated using the control, and read using a Molecular Devices SpectraMax iD5, providing luminescence in relative light units (RLU). The plate reader injected 20 μL of the 50 μM Coelenterizine substrate immediately before taking the RLU measurement for each well.
The sample signals were then normalized to the average signal of the DMSO column, as well as to the maximum signal of one of the reference compounds, as shown in the equations below: […]
The EC50 of each compound is then defined as when the concentration response curve passes 0.5.
For `COCCOCCn1cc(CCN2C(=O)c3oc4ccccc4c3OC[C@@]2(C)C(=O)NCc2ccccc2OC)nn1` [Example 136], the “Bioactivity Bucket, S” value was “inactive”.

Same assay, conditions: Homo sapiens, Endothelial cell, 24 h, KLF2 promoter luciferase, 24 hours, 11-point concentration response; read-out: Activity Range (EC50)
For `COCCN1C(=O)c2oc3ccccc3c2OCC1(C)C(=O)NCc1c(OC)ccc2cccnc12` (centres unmarked) [Example 20], the EC50 was 501 to 5000 nM. Compound `COCCN1C(=O)c2oc3cc(C(=O)NC4(C)COC4)ccc3c2OCC1(C)C(=O)NCc1cc(F)ccc1OC` (centres unmarked) [Example 74] has an EC50 of 501 to 5000 nM. `COc1cccnc1CNC(=O)[C@@]1(C)COc2c(oc3ccc(Cl)cc23)C(=O)N1CC(=O)N1CC(O)C1` [Example 104] showed an EC50 of 51 to 500 nM. `COCCN1C(=O)c2oc3cc(C4CC4)ccc3c2OCC1(C)C(=O)NCc1ccccc1OC` (centres unmarked) [Example 97] was tested, and the EC50 was 501 to 5000 nM. In the case of `COc1cccc(Cl)c1CNC(=O)C1(C)COc2c(oc3cc(C(=O)NC4(C)COC4)ccc23)C(=O)N1[C@H]1C[C@@H](OC)C1` (some centres unmarked) [Example 85], the EC50 is reported as at most 50 nM. With `COCCN1C(=O)c2oc3ccccc3c2OCC1(C)C(=O)NCc1c(C#N)cccc1OC` (centres unmarked) [Example 28] the EC50 was 501 to 5000 nM. Work on `COCCN1C(=O)c2oc3cc(C(=O)NC4(C)COC4)ccc3c2OCC1(C)C(=O)NCc1ncccc1OC` (centres unmarked) [Example 66] yielded an EC50 of 501 to 5000 nM. In the case of `COc1cc(F)ccc1CNC(=O)C1(C)COc2c(oc3cc(C(=O)NC4CCC4)ccc23)C(=O)N1CC1CC1` (centres unmarked) [Example 72], the EC50 is reported as 51 to 500 nM. In the case of `CC=C1CC(N2C(=O)c3oc4ccccc4c3OCC2(C)C(=O)NCc2ccccc2OC)C1` (racemic) [Example 15], the EC50 is reported as 501 to 5000 nM. With `COCCN1C(=O)c2oc3ccccc3c2OCC1(C)C(=O)NCc1c(OC)ccc2ccccc12` (centres unmarked) [Example 32] the EC50 was 501 to 5000 nM. Work on `[2H]C([2H])([2H])N(C(=O)CN1C(=O)c2oc3ccc(F)cc3c2OC[C@]1(C)C(=O)NCc1c(F)cccc1OC)C([2H])([2H])[2H]` [Example 114, (R)-4-(2-(bis(methyl-d3)amino)-2-oxoethyl)-9-fluoro-N-(2-fluoro-6-methoxybenzyl)-3-methyl-5-oxo-2,3,4,5-tetrahydrobenzofuro[2,3-f][1,4]oxazepine-3-carboxamide] yielded an EC50 of 51 to 500 nM. For `COCCN1C(=O)c2oc3ccccc3c2OCC1(C)C(=O)NCc1cc(F)c(Cl)cc1OC` (centres unmarked) [Example 45], the EC50 was 501 to 5000 nM. For `COc1ccccc1CNC(=O)C1(C)COc2c(oc3cc(C(=O)NC4(C)COC4)cnc23)C(=O)N1CC(=O)N(C)C` (centres unmarked) [Example 121, 4-(2-(dimethylamino)-2-oxoethyl)-N3-(2-methoxybenzyl)-3-methyl-N8-(3-methyloxetan-3-yl)-5-oxo-2,3,4,5-tetrahydropyrido[2′,3′:4,5]furo[2,3-f][1,4]oxazepine-3,8-dicarboxamide], the EC50 was 51 to 500 nM. `COc1cccnc1CNC(=O)[C@@]1(C)COc2c(oc3cc(-c4nc(C(F)(F)F)cs4)ccc23)C(=O)N1CC(=O)N(C)C` [Example 128] gave an EC50 of at most 50 nM. With `COc1cccc(F)c1CNC(=O)[C@@]1(C)COc2c(oc3ccc(Cl)cc23)C(=O)N1CC(=O)N1CC(O)C1` [Example 105] the EC50 was 51 to 500 nM. Compound `COCCN1C(=O)c2oc3cc(C(=O)NC4(C)COC4)ccc3c2OCC1(C)C(=O)NCc1c(F)cccc1OC` (racemic) [Example 81] has an EC50 of 51 to 500 nM. `COCCN1C(=O)c2oc3ccccc3c2OCC1(C)C(=O)NCc1cc(Cl)c(F)cc1OC` (centres unmarked) [Example 29] was tested, and the EC50 was 501 to 5000 nM. For `COCCN1C(=O)c2oc3ccccc3c2OCC1(C)C(=O)NCc1cc(C)ccc1OC` (centres unmarked) [Example 34], the EC50 was 501 to 5000 nM. Work on `COCCN1C(=O)c2oc3cc(C)ccc3c2OCC1(C)C(=O)NCc1ccccc1OC` (centres unmarked) [Example 95, N-(2-methoxybenzyl)-4-(2-methoxyethyl)-3,8-dimethyl-5-oxo-2,3,4,5-tetrahydrobenzofuro[2,3-f][1,4]oxazepine-3-carboxamide] yielded an EC50 of 501 to 5000 nM. `[2H]C([2H])([2H])N(C(=O)CN1C(=O)c2oc3ccc(Cl)cc3c2OCC1(C)C(=O)NCc1ncccc1OC(C)C)C([2H])([2H])[2H]` (centres unmarked) [Example 110] showed an EC50 of 501 to 5000 nM. Compound `[2H]C([2H])([2H])N(C(=O)CN1C(=O)c2oc3cc(-c4nc(C(F)(F)F)cs4)ccc3c2OC[C@]1(C)C(=O)NCc1ncccc1OC)C([2H])([2H])[2H]` [Example 126] has an EC50 of at most 50 nM. For `COc1ccccc1CNC(=O)C1(C)COc2c(oc3ccccc23)C(=O)N1CC1(F)CCC1` (centres unmarked) [Example 2], the EC50 was 501 to 5000 nM. In the case of `COc1cccc(C#N)c1CNC(=O)C1(C)COc2c(oc3cc(C(=O)NC4(C)COC4)ccc23)C(=O)N1[C@H]1C[C@@H](OC)C1` (some centres unmarked) [Example 55], the EC50 is reported as 51 to 500 nM. Work on `COCCN1C(=O)c2oc3cc(-c4cncs4)ccc3c2OCC1(C)C(=O)NCc1ccccc1OC` (centres unmarked) [Example 100] yielded an EC50 of 51 to 500 nM. In the case of `COc1cccc(F)c1CNC(=O)[C@@]1(C)COc2c(oc3ccc(F)cc23)C(=O)N1CC(=O)N1CC[C@H]1CO` [Example 117], the EC50 is reported as 51 to 500 nM. In the case of `COc1ccc(F)cc1CNC(=O)C1(C)COc2c(oc3cc(C(=O)NC4CCC4)ccc23)C(=O)N1CC1CC1` (centres unmarked) [Example 92], the EC50 is reported as at most 50 nM. With `COc1cccc(F)c1CNC(=O)C1(C)COc2c(oc3ccc(F)cc23)C(=O)N1CC(=O)N(C)CCO` (centres unmarked) [Example 111, 9-fluoro-N-(2-fluoro-6-methoxybenzyl)-4-(2-((2-hydroxyethyl)(methyl)amino)-2-oxoethyl)-3-methyl-5-oxo-2,3,4,5-tetrahydrobenzofuro[2,3-f][1,4]oxazepine-3-carboxamide] the EC50 was 51 to 500 nM. Work on `COc1cccnc1CNC(=O)C1(C)COc2c(oc3cc(C(=O)NC4CCC4)ccc23)C(=O)N1CC1CC1` (centres unmarked) [Example 53] yielded an EC50 of 51 to 500 nM. Work on `COCCN1C(=O)c2oc3cc(C(=O)NC4CCC4)ccc3c2OC[C@@]1(C)C(=O)NCc1ccccc1OC` [Example 49, (S)—N8-cyclobutyl-N3-(2-methoxybenzyl)-4-(2-methoxyethyl)-3-methyl-5-oxo-2,3,4,5-tetrahydrobenzofuro[2,3-f][1,4]oxazepine-3,8-dicarboxamide] yielded an EC50 of 501 to 5000 nM. `COc1cc(F)ccc1CNC(=O)C1(C)COc2c(oc3cc(C(=O)NC4(C)COC4)ccc23)C(=O)N1CC1CC1` (centres unmarked) [Example 59] showed an EC50 of 51 to 500 nM. In the case of `[2H]C([2H])([2H])N(C(=O)CN1C(=O)c2oc3ccc(Cl)cc3c2OC[C@]1(C)C(=O)NCc1c(F)cccc1OC)C([2H])([2H])[2H]` [Example 102, (R)-4-(2-(bis(methyl-d3)amino)-2-oxoethyl)-9-chloro-N-(2-fluoro-6-methoxybenzyl)-3-methyl-5-oxo-2,3,4,5-tetrahydrobenzofuro[2,3-f][1,4]oxazepine-3-carboxamide], the EC50 is reported as 51 to 500 nM. Work on `COCCN1C(=O)c2oc3cc(C(=O)NC4CCC4)ccc3c2OCC1(C)C(=O)NCc1c(C#N)cccc1OC` (centres unmarked) [Example 90] yielded an EC50 of at most 50 nM. With `COCCN1C(=O)c2oc3cc(C(=O)NC4(C)COC4)cnc3c2OCC1(C)C(=O)NCc1c(Cl)cccc1OC` (centres unmarked) [Example 123] the EC50 was 51 to 500 nM. `COc1ccccc1CNC(=O)C1(C)COc2c(oc3ccccc23)C(=O)N1CC1(O)CCC1` (centres unmarked) [Example 11] gave an EC50 of 501 to 5000 nM. `COc1cccc(Cl)c1CNC(=O)C1(C)COc2c(oc3cc(C(=O)NC4(C)COC4)ccc23)C(=O)N1CC1CC1` (centres unmarked) [Example 86] gave an EC50 of at most 50 nM. With `COCCN1C(=O)c2oc3ccccc3c2OCC1(C)C(=O)NCc1c(OC)ccc2ccncc12` (centres unmarked) [Example 30] the EC50 was 501 to 5000 nM. `COc1ccc(F)c(F)c1CNC(=O)C1(C)COc2c(oc3cc(C(=O)NC4CCC4)ccc23)C(=O)N1[C@H]1C[C@@H](OC)C1` (some centres unmarked) [Example 82] gave an EC50 of 51 to 500 nM. `COc1ccccc1CNC(=O)C1(C)COc2c(oc3ccccc23)C(=O)N1C1CCC1` (centres unmarked) [Example 13] gave an EC50 of 501 to 5000 nM.

Same assay, conditions: Homo sapiens, Endothelial cell, Bioactivity of stereoisomers: R isomer; read-out: Bioactivity Bucket, R
`[2H]C([2H])([2H])N(C(=O)CN1C(=O)c2oc3ccc(Cl)cc3c2OC[C@]1(C)C(=O)NCc1c(F)cccc1OC)C([2H])([2H])[2H]` [Example 102, (R)-4-(2-(bis(methyl-d3)amino)-2-oxoethyl)-9-chloro-N-(2-fluoro-6-methoxybenzyl)-3-methyl-5-oxo-2,3,4,5-tetrahydrobenzofuro[2,3-f][1,4]oxazepine-3-carboxamide] showed an EC50 of 51 to 500 nM.

Same assay, conditions: Homo sapiens, Endothelial cell, Bioactivity of stereoisomers: S isomer; read-out: Bioactivity Bucket, S
With `COCCN1C(=O)c2oc3cc(C(=O)NC4CCC4)ccc3c2OC[C@@]1(C)C(=O)NCc1ccccc1OC` [Example 49, (S)—N8-cyclobutyl-N3-(2-methoxybenzyl)-4-(2-methoxyethyl)-3-methyl-5-oxo-2,3,4,5-tetrahydrobenzofuro[2,3-f][1,4]oxazepine-3,8-dicarboxamide] the EC50 was 501 to 5000 nM.

Same assay, conditions: Homo sapiens, Endothelial cell, Bioactivity of stereoisomers: racemate; read-out: Bioactivity Bucket, Racemate
With `CC=C1CC(N2C(=O)c3oc4ccccc4c3OCC2(C)C(=O)NCc2ccccc2OC)C1` (racemic) [Example 15] the EC50 was 501 to 5000 nM. In the case of `COCCN1C(=O)c2oc3cc(C(=O)NC4(C)COC4)ccc3c2OCC1(C)C(=O)NCc1c(F)cccc1OC` (racemic) [Example 81], the EC50 is reported as 51 to 500 nM. With `C#CCCN1C(=O)c2oc3ccccc3c2OCC1(C)C(=O)NCc1ccccc1OC` (racemic) [Example 5] the EC50 was 501 to 5000 nM.
